This is an account of results in paper PMC3814370, “Functional assignment of KEOPS/EKC complex subunits in the biosynthesis of the universal t^6A tRNA modification” (Nucleic Acids Research, 2013).

Common to all, as to assay type: biochemical
Assay [1] deals with T1, PaKEOPS (Pcc1-Kae1-Bud32-Cgi121) (Pyrococcus abyssi, UniProt Q9UYB9).
T1 construct: recombinant from E. coli Rosetta2, His-tag purification; whole complex or reconstituted from Pcc1-Kae1 plus Bud32-Cgi121; homodimer of the heterotetramer; with tRNA N6-adenosine threonylcarbamoyltransferase; KEOPS complex Pcc1-like subunit; Regulatory protein Cgi121
The experiment in a line: TLC of radiolabelled ATP hydrolysis. The note with it: 100 uM ATP, 50 °C, 30 min, with or without tRNA; reconstituted complex; labelled compound.

For assay [2], the target named is T1, PaKEOPS (Pcc1-Kae1-Bud32-Cgi121). In words: TLC of radiolabelled ATP hydrolysis. The note with it: 100 uM ATP, 50 °C, 30 min, with or without tRNA; reconstituted complex; labelled compound. The source holds these as a separate data set.
For assay [3], the target named is T2, Kae1-Bud32-Cgi121 ternary complex (Pyrococcus abyssi, UniProt Q9UYB9).
T2 construct: recombinant from E. coli Rosetta2, His-tag purification; ternary complex, monomeric form; with tRNA N6-adenosine threonylcarbamoyltransferase; Regulatory protein Cgi121
In words: TLC of radiolabelled ATP hydrolysis. Conditions: 100 uM ATP, 50 °C, 30 min; independent of tRNA; labelled compound.

Assay [4] addresses T3, Kae1-Bud32 binary complex (Pyrococcus abyssi, UniProt Q9UYB9).
T3 construct: recombinant from E. coli Rosetta2, His-tag purification; binary complex, monomeric form; with tRNA N6-adenosine threonylcarbamoyltransferase
The experiment in a line: TLC of radiolabelled ATP hydrolysis. The note with it: 100 uM ATP, 50 °C, 30 min; independent of tRNA; labelled compound.

In assay [5] the target is T4, Bud32-Cgi121 binary complex (Pyrococcus abyssi, UniProt Q9UYB9).
T4 construct: recombinant from E. coli Rosetta2, His-tag purification; binary complex, monomeric form; with Regulatory protein Cgi121
T4 sequence (Q9UYB9 1-220): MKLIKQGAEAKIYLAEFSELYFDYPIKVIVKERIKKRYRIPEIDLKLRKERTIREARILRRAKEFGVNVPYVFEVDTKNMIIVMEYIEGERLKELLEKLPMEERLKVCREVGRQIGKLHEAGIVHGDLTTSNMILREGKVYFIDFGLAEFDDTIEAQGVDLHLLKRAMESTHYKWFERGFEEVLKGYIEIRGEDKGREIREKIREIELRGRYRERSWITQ
T4 sequence (Q9UZ62 1-171 partner): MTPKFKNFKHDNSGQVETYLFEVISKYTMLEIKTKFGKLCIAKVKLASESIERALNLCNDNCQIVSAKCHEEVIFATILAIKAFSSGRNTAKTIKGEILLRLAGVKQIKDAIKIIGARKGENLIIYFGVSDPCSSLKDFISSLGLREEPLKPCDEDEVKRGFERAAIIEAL
The experiment in a line: autophosphorylation with gamma-32P ATP, SDS-PAGE phosphorimaging. Conditions: 25 uM cold ATP, 55 °C, 30 min; no ATPase activity in TLC assay; labelled compound.

For assay [6], the target named is T5, PaKEOPS (Pcc1-Kae1-Bud32-Cgi121) (Pyrococcus abyssi, UniProt Q9UYB9, D127R).
T5 construct: recombinant from E. coli Rosetta2, His-tag purification; whole complex or reconstituted from Pcc1-Kae1 plus Bud32-Cgi121; homodimer of the heterotetramer; with tRNA N6-adenosine threonylcarbamoyltransferase; KEOPS complex Pcc1-like subunit; Regulatory protein Cgi121
The experiment in a line: TLC of radiolabelled ATP hydrolysis. The note with it: 100 uM ATP, 50 °C, 30 min, with or without tRNA; reconstituted complex; labelled compound.

The target in assay [7] is T1, PaKEOPS (Pcc1-Kae1-Bud32-Cgi121). In words: TLC of radiolabelled ATP hydrolysis. The note with it: 100 uM ATP, 50 °C, 30 min; stimulated by tRNA; labelled compound.

As for `Nc1ncnc2c1ncn2[C@@H]1O[C@H](COP(=O)(O)OP(=O)(O)OP(=O)(O)O)[C@@H](O)[C@H]1O` [ATP], in assay [1], the “wild-type ATPase activity” value is listed as “PaKEOPS (Kae1^D159A) behaved in the same manner as the wild-type PaKEOPS”. For the same molecule, in assay [2], the “normal ATPase activity” value was “the reconstituted mutant PaKEOPS exhibited normal ATPase activity”. Moreover, the ATPase activity entry in assay [3] is on record as “we recorded a significant ATPase activity that was independent of tRNA”; in assay [4], “binary complex Kae1–Bud32 exhibited a significant ATPase activity”; in assay [7] it was “the ATPase activity of the whole PaKEOPS complex is stimulated by the presence of tRNA”. Further, the autophosphorylation result in assay [5] is recorded as “When the reaction mixture contained only Bud32–Cgi121, a significant autophosphorylation activity of Bud32 was observed”. Moreover, in assay [6], the “ATPase activity totally lost” value is reported as “PaKEOPS (Bud32^D127R) totally lost the ATPase activity”.
